These results are taken from US11844795B2, “Combination therapy for cancer treatment” (Ipsen Biopharm Ltd., priority 2015, dated 2023).

The test system of one series is cancer cells. In words: Active range based on XTC008.
The next series addresses SIRT2 (Homo sapiens, UniProt Q8IXJ6). As to conditions: cited from earlier work.
Series [1] relates to C33A cervical cancer xenograft. The series can be described thus: C33A cervical cancer xenograft model. Conditions: MM-398 2 mg/kg weekly Day 1; veliparib 50 mg/kg orally Days 4-6; FIG. 7B.
The subject of series [2] is MS751 cervical cancer xenograft. In words: MS751 cervical cancer xenograft model. As to conditions: MM-398 5 mg/kg weekly Day 1; veliparib 50 mg/kg orally Days 4-6; FIG. 7A.
The test system of another series is PAR. Conditions: Table 2B, unit inferred; cited from earlier work.
Series [3] deals with DMS-114 small cell lung cancer cells. The series can be described thus: % cell number over time, SN-38 with PARP inhibitors. Format: cell-based. As to conditions: SN-38 at 2 nM; DMS-114 SCLC cells.
Series [4] concerns small cell lung cancer (SCLC), pancreatic cancer and breast cancer cell lines. The series can be described thus: Growth inhibition, SN-38 with PARP inhibitors. Format: cell-based.
Series [5] concerns CFPAC-1 pancreatic cancer cells. In words: % cell number over time, SN-38 with PARP inhibitors. Format: cell-based. Conditions: SN-38 at 2 nM.
In the next series the target is PARG (Homo sapiens, UniProt Q86W56). As to conditions: cited from earlier work.
Sequence of PARG (Q86W56 whole entry, species assumed): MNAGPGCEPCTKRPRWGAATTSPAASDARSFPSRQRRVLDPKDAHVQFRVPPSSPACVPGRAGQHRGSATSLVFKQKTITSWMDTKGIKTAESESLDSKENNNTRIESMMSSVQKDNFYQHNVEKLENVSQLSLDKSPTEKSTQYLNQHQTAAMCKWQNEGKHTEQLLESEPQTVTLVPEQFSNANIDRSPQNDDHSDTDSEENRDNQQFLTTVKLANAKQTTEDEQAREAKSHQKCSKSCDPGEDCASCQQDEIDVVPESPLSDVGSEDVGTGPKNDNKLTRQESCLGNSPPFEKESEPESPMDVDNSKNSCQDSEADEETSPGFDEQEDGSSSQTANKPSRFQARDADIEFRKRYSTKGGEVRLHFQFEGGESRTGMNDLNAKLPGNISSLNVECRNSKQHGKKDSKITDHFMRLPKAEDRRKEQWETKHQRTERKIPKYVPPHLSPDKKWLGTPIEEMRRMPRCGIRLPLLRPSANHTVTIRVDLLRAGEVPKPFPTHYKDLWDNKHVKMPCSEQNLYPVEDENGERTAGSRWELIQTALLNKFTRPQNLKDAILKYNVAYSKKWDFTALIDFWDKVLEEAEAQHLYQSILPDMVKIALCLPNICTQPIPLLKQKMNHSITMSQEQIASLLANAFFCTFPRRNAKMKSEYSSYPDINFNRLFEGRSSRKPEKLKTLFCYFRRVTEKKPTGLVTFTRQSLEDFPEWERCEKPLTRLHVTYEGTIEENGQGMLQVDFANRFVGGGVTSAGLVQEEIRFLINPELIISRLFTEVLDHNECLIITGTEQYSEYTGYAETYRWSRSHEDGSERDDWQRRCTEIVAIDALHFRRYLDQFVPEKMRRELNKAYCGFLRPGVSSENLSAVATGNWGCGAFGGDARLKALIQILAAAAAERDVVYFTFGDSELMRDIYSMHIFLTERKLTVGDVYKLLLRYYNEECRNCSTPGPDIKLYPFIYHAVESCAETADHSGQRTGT
The subject of the next series is HCC1954. In words: Cell survival (CellTiter-Glo) after SN-38 and/or PARP inhibitor. Format: cell-based. The procedure:
(§1) Cells were plated at 1000 cells/well and then incubated for 24 hours. […] The plates were then allowed to incubate for 72 hours period. After the 72 hour incubation period the media was removed and cell viability was determined using the CellTiter-Glo® cell viability assay (Promega, Madison Wis.) according to the product instructions.

A further series deals with HCC38. Described as above. Format: cell-based. The procedure:
as §1

A further series relates to HCC1187. The series is described as above. Format: cell-based. Conditions: Homo sapiens, HCC1187, read-out: IC50 log10 (μM) (converted). The procedure:
as §1

Another series has as its system BT20. The series is described as above. Format: cell-based. The procedure: as §1
The test system of the next series is SUM159PT. Described as above. Format: cell-based. As to the method: as §1
The target of the next series is PARP 1 (Homo sapiens, UniProt P09874). Conditions: cell-free assay; cited from earlier work.
Sequence of PARP 1 (P09874 whole entry, species assumed): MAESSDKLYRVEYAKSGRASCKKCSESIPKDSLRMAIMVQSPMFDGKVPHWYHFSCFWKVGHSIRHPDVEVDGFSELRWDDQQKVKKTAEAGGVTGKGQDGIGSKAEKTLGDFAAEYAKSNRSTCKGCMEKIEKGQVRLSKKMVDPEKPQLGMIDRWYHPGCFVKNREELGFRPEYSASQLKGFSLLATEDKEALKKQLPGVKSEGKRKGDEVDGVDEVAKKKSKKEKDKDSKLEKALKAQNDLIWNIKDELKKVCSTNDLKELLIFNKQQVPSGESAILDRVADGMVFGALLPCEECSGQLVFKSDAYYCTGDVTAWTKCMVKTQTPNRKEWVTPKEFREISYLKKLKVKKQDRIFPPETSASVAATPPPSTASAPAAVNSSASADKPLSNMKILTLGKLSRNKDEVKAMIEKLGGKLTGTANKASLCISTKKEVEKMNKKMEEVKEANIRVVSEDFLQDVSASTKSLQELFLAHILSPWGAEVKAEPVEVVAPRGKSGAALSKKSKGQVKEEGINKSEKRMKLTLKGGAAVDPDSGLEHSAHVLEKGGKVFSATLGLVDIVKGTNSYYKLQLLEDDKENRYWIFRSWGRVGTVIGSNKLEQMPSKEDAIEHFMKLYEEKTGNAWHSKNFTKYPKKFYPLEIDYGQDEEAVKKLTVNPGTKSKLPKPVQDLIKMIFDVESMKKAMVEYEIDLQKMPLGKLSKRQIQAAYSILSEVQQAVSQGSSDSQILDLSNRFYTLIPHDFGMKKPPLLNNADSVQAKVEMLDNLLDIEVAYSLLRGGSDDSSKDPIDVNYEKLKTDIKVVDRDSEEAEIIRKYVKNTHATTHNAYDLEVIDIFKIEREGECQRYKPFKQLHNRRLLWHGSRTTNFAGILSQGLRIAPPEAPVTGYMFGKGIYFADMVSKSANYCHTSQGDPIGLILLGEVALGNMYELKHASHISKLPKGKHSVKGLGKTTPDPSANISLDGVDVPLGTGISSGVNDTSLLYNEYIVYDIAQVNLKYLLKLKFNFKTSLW

Sequence of SIRT2 (Q8IXJ6 whole entry, species assumed): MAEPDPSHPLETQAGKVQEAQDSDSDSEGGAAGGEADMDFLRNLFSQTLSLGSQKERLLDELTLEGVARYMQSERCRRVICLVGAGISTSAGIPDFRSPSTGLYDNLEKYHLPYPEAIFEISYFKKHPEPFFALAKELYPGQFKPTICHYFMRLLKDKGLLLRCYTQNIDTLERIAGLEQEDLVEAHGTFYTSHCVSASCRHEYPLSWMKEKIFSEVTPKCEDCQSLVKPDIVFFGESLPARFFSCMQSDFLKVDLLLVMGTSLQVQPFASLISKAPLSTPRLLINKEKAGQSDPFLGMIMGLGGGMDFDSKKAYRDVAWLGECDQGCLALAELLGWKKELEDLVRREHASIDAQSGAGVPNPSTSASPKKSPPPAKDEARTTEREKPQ

By EC50 is commonly meant the concentration at which the effect is half-maximal. For `C[C@]1(c2nc3c(C(N)=O)cccc3[nH]2)CCCN1` [Veliparib], in the series “Estimated tumor range”, the Estimated tumor range is recorded as more than 2000 nM. In the series on cancer cells, the “Active Range based on XTC008” value is 1000 to 10000 nM. For the same compound, on SIRT2, the “activity on SIRT2” value was “inactive”. Besides, the “efficacy (tumor growth)” value in series [1] is “neither MM-398 or veliparib were efficacious as single agents”; in [2] it was “not efficacious”. The EC50 with PAR is 0.0059 µM. In addition, the “effect of combination with SN-38” value in series [3] and in series [5] was “Additive/synergistic effects” throughout. For the same compound, the “growth inhibition of the cancer cells in combination with SN-38” value in series [4] (2 nM SN-38) is listed as “additive/synergistic growth inhibition”. Also, in series [4] (compared with olaparib and rucaparib), the “potency in the combination with SN-38” value was “slightly less potent in the combination with SN-38 than olaparib and rucaparib”.
As a reminder, the IC50 is the concentration at which inhibition is half-maximal. Regarding `Cn1ncnc1[C@H]1c2n[nH]c(=O)c3cc(F)cc(c23)N[C@@H]1c1ccc(F)cc1` [Talazoparib], the “inhibition of PARG” value on PARG was “does not inhibit”. In addition, the “Maximum Kill Percent” value with HCC1954 (HCC1954, Exp. 4, single agent) was determined as 100%; with HCC38 (HCC38, Exp. 4, single agent), 92%; in the series on BT20 (BT20, Exp. 4, single agent) it was 100%; in the series on SUM159PT (SUM159PT, Exp. 4, single agent), 94%. The IC50 in the series on HCC1954 (Homo sapiens, HCC1954, read-out: IC50 log10 (μM) (converted)) is 4370 µM; in the series with HCC38 (Homo sapiens, HCC38, read-out: IC50 log10 (μM) (converted)) it was 0.0589 µM; in the series with HCC1187 it was 191 µM; with BT20 (Homo sapiens, BT-20, read-out: IC50 log10 (μM) (converted)), 28.2 µM; in the series with SUM159PT (Homo sapiens, SUM-159-PT, read-out: IC50 log10 (μM) (converted)), 0.0933 µM. Besides, the EC50 with PAR was 0.0025 µM.
The Ki is a measure of affinity in units of concentration, obtained from inhibition or displacement. With `CN(C)Cc1ccc(-c2nc3cccc4c3n2CCNC4=O)cc1` [AG-14361], the Ki on PARP 1 was less than 0.005 µM.
